pIC50: −log10 of the molar value.
How the values were obtained:
[1] = tested on: HT-29 tumor cells; assay: Anti-proliferative activity, SRB assay; type: cell-based, human; conditions: Homo sapiens, HT-29, 72 h, 72 hours exposure, read-out: CELLULAR IC50 HT-29
Protocol: We observed the surprising finding that compounds of the invention were useful in inhibiting proliferation of HT-29 tumor cells (see Table 3).
3,000-15,000 cells/well were exposed to the test compounds at various concentrations appropriate to determine an IC50, for 72 hours, and cell proliferation was measured using the SRB assay according to Shekan et al (J Natl Cancer Inst (1990) 82, 1107-112) in order to estimate the IC50 values shown in Table 3. Briefly, cells were plated in 96 well dishes 24 hours prior to compound addition. The assay was terminated with the addition of cold TCA to a final concentration of 10% and the plates were incubated for one hour at 4° C. The plates were then washed 5 times with water and 100 μl of a Sulforhodamine B solution (4%) was added to each well. The plate was then incubated for 10 minutes at room temperature before removal of unbound dye by washing with 1% acetic acid. The bound dye was solubilized with 10 mM Trizma base and the absorbance read at OD570. Inhibitory activity of the compounds was calculated as % inhibition of cell proliferation compared to cells treated with the solvent (DMSO).

[2] = biological target: B-Raf delta1-415 (Homo sapiens, UniProt P15056); assay: B-Raf kinase inhibition (MAPH filter plate, 33P-ATP, MEK1 substrate); conditions: read-out: Biochemical IC50 B-Raf
From the text: We characterized the in vitro inhibitory activity against protein kinases of compounds of the present invention by determining their IC50 values (see Table 2).
Kinase: B-Raf delta1-415 (e.g., Upstate Cat. No. 14-530)
Reaction Temperature: room temperature
Assay Plate: 96 well U bottom plate (Greiner, 650161)
MultiScreen-PH Plate: 96 well MAPH Filter Plates (Millipore, MAPHNOB50)
Filter Washing Solution: 0.75% H3PO4
Szintilation Liquid: Supermix Liquid Szintillator (PerkinElmer, 1200-439)
Negative Control (C−): 100 mM EDTA, no Inhibitor
Positive Control (C+): no Inhibitor
Reaction Buffer: 20 mM Mops, pH 7.0 • 10 mM MgCl2 • 0.4 mM MnCl2 • 100 mM NaCl • 1 mM DTT • 0.01% NP40
Final Assay Concentrations:
Kinase: Kinase conc. yielding 50% substrate turnover as determined in titration experiment.
Adenosine 5′-[γ-^33P]triphosphate: 12.5 μCi/ml (Amersham Biosciences, BF1000)
Pipetting Sequence: • 1) Add 10 μl 4-fold concentrated substrate in 3-fold concentrated reaction buffer to each well of assay plate • 2) Add 10 μl 4-fold concentrated inhibitor in 4% DMSO in H2O to each well except to C− and C+ wells (starting point: final inhibitor concentration 10 μM; IC50 determination based on dilution series) • 3) Add 10 μl 4% DMSO in H2O to C− and C+ wells • 4) Add 10 μl 500 mM EDTA in H2O to C− wells • 5) Add 10 μl 50 μCi/ml adenosine 5′-[γ-^33P]triphosphate in H2O+4-fold cold ATP to each well • 6) Add 10 μl 4-fold concentrated kinase in reaction buffer to each well • 7) Incubate 1 hr at room temperature • 8) Add 10 μl 50 mM EDTA in H2O to each well except to C− wells • 9) Prepare MAPH plates by adding 200 μl 0.75% H3PO4 to each well • 10) Exhaust 0.75% H3PO4 using Millipore vacuum station • 11) Add 60 μl 0.75% H3PO4 to each well of MAPH filter plate • 12) Transfer 30 μl sample per well from assay plate to corresponding well of MAPH filter plate • 13) Incubate 30 min at room temperature • 14) Wash each well of MAPH filter plates 3× with 200 μl 0.75% H3PO4 using Millipore vacuum station • 15) Add 20 μl scintillation liquid to each well of MAPH filter plate • 16) Seal MAPH filter plate • 17) Store MAPH filter plate 30 min in darkness • 18) Quantify radioactivity using scintillation counter (MicroBeta, Perkin-Elmer)

Chain of B-Raf delta1-415 (P15056 416-766): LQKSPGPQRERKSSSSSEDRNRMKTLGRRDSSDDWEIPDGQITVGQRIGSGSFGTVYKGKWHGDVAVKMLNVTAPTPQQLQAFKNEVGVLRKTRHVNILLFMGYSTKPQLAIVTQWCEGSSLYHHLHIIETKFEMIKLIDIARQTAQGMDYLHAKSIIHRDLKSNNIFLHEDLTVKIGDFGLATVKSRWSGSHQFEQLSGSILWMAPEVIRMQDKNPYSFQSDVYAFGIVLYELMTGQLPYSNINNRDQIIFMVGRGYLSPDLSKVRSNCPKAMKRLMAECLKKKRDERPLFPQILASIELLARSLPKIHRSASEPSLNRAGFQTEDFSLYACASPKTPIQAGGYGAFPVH

| pIC50 [1] | pIC50 [2] | SMILES |
| --- | --- | --- |
| > 6.00 | > 7.00 | CNC(=O)c1cccc(Nc2ncc3cc(-c4c(Cl)cccc4Cl)c(=O)n(OC)c3n2)c1 [Compound 131, 6-(2,6-Dichlorophenyl)-8-methoxy-2-(3-methylaminocarbonylphenyl)-amino-pyrido[2,3-d]pyrimidin-7-one] |
| > 6.00 | > 7.00 | COCCN(C)C(=O)c1cc(Nc2ncc3cc(-c4c(F)cccc4Cl)c(=O)n(OC)c3n2)cn1C [Compound 194, 6-(2-Chloro-6-fluorophenyl)-2-(5-N-(2-methoxyethyl)-N-methyl-aminocarbonyl-1-methyl-pyrrol-3-yl)-amino-8-methoxy-pyrido[2,3-d]pyrimidin-7-one] |
| > 6.00 | < 6.00 | O=c1c(-c2c(F)cccc2Cl)cc2cnc(Nc3ccccc3)nc2n1OCC1CCOCC1 [Compound 164, 6-(2-Chloro-6-fluorophenyl)-2-phenylamino-8-(tetrahydropyran-4-ylmethyl)oxy-pyrido[2,3-d]pyrimidin-7-one] |
| > 5.00 | > 6.30 | COn1c(=O)c(-c2c(Cl)cccc2Cl)cc2cnc(NCCOC(=O)[C@@H](N)C(C)C)nc21 [Compound 109, 2-((2-(S)-2-Amino-3-methylbutanoyloxy)ethyl)-amino-6-(2,6-dichlorophenyl)-8-methoxy-pyrido[2,3-d]pyrimidin-7-one] |
| > 6.00 | > 7.00 | CCOn1c(=O)c(-c2c(F)cccc2Cl)cc2cnc(Nc3ccc(N4CCOCC4)cc3)nc21 [Compound 128] |
| > 6.00 | > 6.30 | COn1c(=O)c(-c2c(Cl)cccc2Cl)cc2cnc(Nc3ccc(Cn4cnnc4)cc3)nc21 [Compound 175, 2-(4-(1,3,4-triazol-1-yl)methylphenyl)-amino-6-(2,6-dichlorophenyl)-8-methoxy-pyrido[2,3-d]pyrimidin-7-one] |
| > 6.00 | > 6.00 | COn1c(=O)c(-c2c(Cl)cccc2Cl)cc2cnc(Nc3ccc(C#N)cc3)nc21 [Compound 86, 2-(4-Cyanophenyl)-amino-6-(2,6-dichlorophenyl)-8-methoxy-pyrido[2,3-d]pyrimidin-7-one] |
| > 6.00 | > 6.30 | O=c1c(-c2c(Cl)cccc2Cl)cc2cnc(Nc3ccccc3)nc2n1OCc1cccnc1 [Compound 165, 6-(2,6-Dichlorophenyl)-2-phenylamino-8-(pyrid-3-ylmethyl)oxy-pyrido[2,3-d]pyrimidin-7-one] |
| > 5.00 | < 6.00 | O=c1ccc2cnc(Nc3ccccc3)nc2n1OC1CCCC1 [Compound 225] |
| > 6.00 | > 6.30 | COn1c(=O)c(-c2c(Cl)cccc2Cl)cc2cnc(Nc3ccc(CC(=O)NCCN4CCCC4)cc3)nc21 [Compound 115, 6-(2,6-Dichlorophenyl)-8-methoxy-2-(4-(2-pyrrolidinoethylaminocarbon-ylmethyl)phenyl)-amino-pyrido[2,3-d]pyrimidin-7-one] |
| > 6.00 | > 6.30 | CC(C)N1CCN(c2ccc(Nc3ncc4cc(-c5c(Cl)cccc5Cl)c(=O)n(OCC5CCOCC5)c4n3)cc2)CC1 [Compound 206, 6-(2,6-Dichlorophenyl)-8-(tetrahydropyran-4-ylmethyl)oxy-2-(4-(4-(1-methylethyl)piperazino)phenyl)-amino-pyrido[2,3-d]pyrimidin-7-one] |
| > 6.00 | > 6.30 | Cn1cc(Nc2ncc3cc(-c4c(Cl)cccc4Cl)c(=O)n(OC[C@H](O)CO)c3n2)cc1C(=O)NCCN1CCCC1 [Compound 108, 6-(2,6-Dichlorophenyl)-8-(2-(R)-2,3-dihydroxypropyl)oxy-2-(5-(2-pyrrolidinoethyl)aminocarbonyl-1-methyl-pyrrol-3-yl)-amino-pyrido[2,3-d]pyrimidin-7-one] |
| > 6.00 | > 6.30 | COn1c(=O)c(-c2c(Cl)cccc2Cl)cc2cnc(Nc3cccc(CN4CC[C@@H](O)C4)c3)nc21 [Compound 182, 6-(2,6-Dichlorophenyl)-2-(3-(3-(R)-hydroxypyrrolidinomethyl)phenyl)-amino-8-methoxy-pyrido[2,3-d]pyrimidin-7-one] |
| > 6.00 | > 7.00 | O=c1c(-c2c(F)cccc2Cl)cc2cnc(Nc3ccc(N4CCOCC4)cc3)nc2n1OCc1cccnc1 [Compound 132] |
| > 6.00 | > 7.00 | O=c1c(-c2c(F)cccc2Cl)cc2cnc(Nc3ccc(N4CCOCC4)cc3)nc2n1OC[C@H]1CCNC1 [Compound 155] |
| > 6.00 | > 7.00 | COn1c(=O)c(-c2c(Cl)cccc2Cl)cc2cnc(Nc3ccc(N4CCCC4=O)cc3)nc21 [Compound 110, 6-(2,6-Dichlorophenyl)-8-methoxy-2-(4-(2-oxopyrrolidino)phenyl)-amino-pyrido[2,3-d]pyrimidin-7-one] |
| > 6.00 | > 6.30 | CCCN1CCN(c2ccc(Nc3ncc4cc(-c5c(Cl)cccc5Cl)c(=O)n(OCCOC)c4n3)cc2)CC1 [Compound 207, 2-(4-(4-propylpiperazino)phenyl)-amino-6-(2,6-dichlorophenyl)-8-(2-methoxyethyl)oxy-pyrido[2,3-d]pyrimidin-7-one] |
| > 5.00 | < 6.00 | O=c1c(-c2ccccc2Cl)cc2cnc(Nc3ccccc3)nc2n1O [Compound 240, 6-(2-Chlorophenyl)-8-hydroxy-2-phenylamino-pyrido[2,3-d]pyrimidin-7-one] |
| > 5.00 | > 7.00 | COn1c(=O)c(-c2c(Cl)cccc2Cl)cc2cnc(Nc3ccc(CO)cc3)nc21 [Compound 144, 6-(2,6-Dichlorophenyl)-2-(4-hydroxymethylphenyl)-amino-8-methoxy-pyrido[2,3-d]pyrimidin-7-one] |
| > 6.00 | > 7.00 | COn1c(=O)c(-c2c(Cl)cccc2Cl)cc2cnc(Nc3ccc(OCCN4CC[C@H](O)C4)cc3)nc21 [Compound 92, 6-(2,6-Dichlorophenyl)-2-(4-(2-(3-(S)-hydroxypyrrolidino)ethyl)oxyphenyl)amino-8-methoxy-pyrido[2,3-d]pyrimidin-7-one] |
| > 6.00 | > 6.30 | COn1c(=O)c(-c2c(Cl)cccc2Cl)cc2cnc(Nc3ccc(CN4CCOCC4)cc3)nc21 [Compound 100, 6-(2,6-Dichlorophenyl)-8-methoxy-2-(4-morpholinomethylphenyl)-amino-pyrido[2,3-d]pyrimidin-7-one] |
| > 6.00 | > 6.30 | COCCN(C)C(=O)c1cc(Nc2ncc3cc(-c4c(Cl)cccc4Cl)c(=O)n(OCC4CC4)c3n2)cn1C [Compound 176, 6-(2,6-Dichlorophenyl)-8-cyclopropylmethyloxy-2-(5-N-(2-methoxyethyl)-N-methyl-aminocarbonyl-1-methyl-pyrrol-3-yl)-amino-pyrido[2,3-d]pyrimidin-7-one] |
| > 6.00 | > 6.30 | CCN1CCN(c2ccc(Nc3ncc4cc(-c5c(Cl)cccc5Cl)c(=O)n(OC)c4n3)cc2)CC1 [Compound 189, 6-(2,6-Dichlorophenyl)-2-(4-(4-ethylpiperazino)phenyl)-amino-8-methoxy-pyrido[2,3-d]pyrimidin-7-one] |
| > 6.00 | > 6.30 | CCNS(=O)(=O)c1cccc(Nc2ncc3cc(-c4c(Cl)cccc4Cl)c(=O)n(OC)c3n2)c1 [Compound 122, 6-(2,6-Dichlorophenyl)-2-(3-ethylaminosulfonylphenyl)-amino-8-methoxy-pyrido[2,3-d]pyrimidin-7-one] |
| > 6.00 | > 6.30 | COn1c(=O)c(-c2c(F)cccc2Cl)cc2cnc(Nc3cc(C(=O)N(C)CCOC(=O)c4cccnc4)n(C)c3)nc21 [Compound 220] |

Reference: patent US8518958B2, “Pyrido [2,3-D] pyrimidines and their use as kinase inhibitors” (Forma Therapeutics, Inc., priority 2006, dated 2013)
